Assay results from article doi:10.1101/265348v4, “Transcriptional Activation of Elephant Shark Mineralocorticoid Receptor by Corticosteroids, Progesterone and Spironolactone” (biorxiv, 2018).

Key:
Assay in all cases: cell-based
Settings in all cases: HEK293; relative to aldosterone = 100%; read-out: % relative to Aldo
[1] = molecular target: T1, truncated elephant shark MR (GAL4-DBD-MR-LBD) (Callorhinchus milii, UniProt A0A4W3I5J5); parameters: transcriptional activation of truncated GAL4-DBD-MR-LBD, luciferase reporter, concentration-response
T1 construct: gene nr3c2
T1 sequence (A0A4W3I5J5 658-956 limits assumed): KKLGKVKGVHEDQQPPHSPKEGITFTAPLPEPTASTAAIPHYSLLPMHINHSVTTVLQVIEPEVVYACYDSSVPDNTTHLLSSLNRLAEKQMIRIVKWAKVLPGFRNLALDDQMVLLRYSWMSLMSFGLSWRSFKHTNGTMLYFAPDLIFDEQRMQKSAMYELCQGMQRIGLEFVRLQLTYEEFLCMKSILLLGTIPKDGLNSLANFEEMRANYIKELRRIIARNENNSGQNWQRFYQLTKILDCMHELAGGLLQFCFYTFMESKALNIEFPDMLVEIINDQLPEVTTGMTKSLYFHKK
Source text: (§1) In parallel experiments, truncated elephant shark MR, lacking the A/B domain and containing a GAL4-DBD instead of the MR DBD, retained a strong response to all corticosteroids and to [compound left out] (Figure 3B). […] Concentration-dependent transcriptional activation of full-length and truncated elephant shark MR (shark MR) by 3-ketosteroids. Full length and truncated elephant shark MR (shark MR) were expressed in HEK293 cells with an MMTV-luciferase reporter. Full-length elephant shark MR (shark MR) (A) and (C) and truncated elephant shark MR (shark MR) (B) and (D). (A), (B) Aldo, cortisol, corticosterone, 11deoxycorticosterone or 11-deoxycortisol. (C), (D) Aldo, Prog, [compound left out] [compound left out], 17OH-Prog (17OH-P) or Spiron. […] Y-axis indicates fold-activation compared to the activity of control vector with vehicle (DMSO) alone as 1.  Figure 5. Concentration-dependent transcriptional activation of full-length and truncated chicken and zebrafish MR by progestins and Spironolactone. […] Full-length chicken MR (A) and zebrafish MR (B) and truncated chicken MR (C) and zebrafish MR (D). Y-axis indicates fold-activation compared to the activity of control vector with vehicle (DMSO) alone as 1.

[2] = molecular target: T2, full-length elephant shark MR (Callorhinchus milii, UniProt A0A4W3I5J5); parameters: transcriptional activation of full-length MR, MMTV-luciferase reporter, concentration-response
T2 construct: gene nr3c2; full coding region in pcDNA3.1, expressed in HEK293 cells
T2 sequence (A0A4W3I5J5 1-956): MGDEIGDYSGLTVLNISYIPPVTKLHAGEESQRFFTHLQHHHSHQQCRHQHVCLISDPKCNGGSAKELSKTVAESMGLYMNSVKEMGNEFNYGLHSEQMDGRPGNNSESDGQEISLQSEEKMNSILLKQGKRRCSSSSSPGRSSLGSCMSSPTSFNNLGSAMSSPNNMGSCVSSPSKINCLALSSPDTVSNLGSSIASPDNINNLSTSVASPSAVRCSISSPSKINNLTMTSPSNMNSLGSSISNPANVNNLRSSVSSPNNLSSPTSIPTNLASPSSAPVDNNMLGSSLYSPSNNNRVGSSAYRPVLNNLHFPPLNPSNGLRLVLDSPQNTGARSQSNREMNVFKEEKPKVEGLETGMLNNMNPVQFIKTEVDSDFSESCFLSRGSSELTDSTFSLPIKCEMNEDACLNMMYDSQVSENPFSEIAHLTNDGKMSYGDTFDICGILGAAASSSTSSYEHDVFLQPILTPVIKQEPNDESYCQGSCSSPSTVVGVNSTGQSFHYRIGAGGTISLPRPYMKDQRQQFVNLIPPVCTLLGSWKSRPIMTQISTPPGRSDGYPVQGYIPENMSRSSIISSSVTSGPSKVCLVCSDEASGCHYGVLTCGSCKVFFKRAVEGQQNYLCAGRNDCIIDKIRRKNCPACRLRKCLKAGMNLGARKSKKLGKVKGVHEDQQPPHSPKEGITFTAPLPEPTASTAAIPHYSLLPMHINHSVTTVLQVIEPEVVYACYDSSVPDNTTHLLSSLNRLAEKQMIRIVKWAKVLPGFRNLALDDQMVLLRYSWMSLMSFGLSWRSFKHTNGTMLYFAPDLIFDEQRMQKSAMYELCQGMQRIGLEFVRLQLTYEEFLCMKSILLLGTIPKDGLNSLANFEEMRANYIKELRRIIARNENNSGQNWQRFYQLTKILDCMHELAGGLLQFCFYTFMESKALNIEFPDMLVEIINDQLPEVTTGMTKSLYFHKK
Source text: (§2) Figure 3. Transcriptional activation of elephant shark MR by 3-ketosteroids. Full length and truncated elephant shark MR were expressed in HEK293 cells with an MMTV-luciferase reporter. A. Full length elephant shark MR. […] (19NP), 17OH-Prog, Spiron or vehicle alone (DMSO). B. Truncated elephant shark MR. […] (19NP), 17OH-Prog or Spiron or vehicle alone (DMSO). Results are expressed as means ± SEM, n=3. Y-axis indicates fold-activation compared to the activity of control vector with vehicle (DMSO) alone as 1.  Figure 4. Concentration-dependent transcriptional activation of full-length and truncated elephant shark MR (shark MR) by 3-ketosteroids. Full length and truncated elephant shark MR (shark MR) were expressed in HEK293 cells with an MMTV-luciferase reporter. Full-length elephant shark MR (shark MR) (A) and (C) and truncated elephant shark MR (shark MR) (B) and (D). (A), (B) Aldo, cortisol, corticosterone, 11deoxycorticosterone or 11-deoxycortisol. (C), (D) Aldo, Prog, [compound left out] [compound left out], 17OH-Prog (17OH-P) or Spiron. […] Y-axis indicates fold-activation compared to the activity of control vector with vehicle (DMSO) alone as 1.  Figure 5. Concentration-dependent transcriptional activation of full-length and truncated chicken and zebrafish MR by progestins and Spironolactone. […] Full-length chicken MR (A) and zebrafish MR (B) and truncated chicken MR (C) and zebrafish MR (D). Y-axis indicates fold-activation compared to the activity of control vector with vehicle (DMSO) alone as 1.

full-length zebrafish MR = molecular target: T3, full-length zebrafish MR (Danio rerio, UniProt A6YIH7); parameters: transcriptional activation of full-length MR, MMTV-luciferase reporter, concentration-response
T3 construct: gene nr3c2; full-length, expressed in HEK293 cells
T3 sequence (A6YIH7 1-970): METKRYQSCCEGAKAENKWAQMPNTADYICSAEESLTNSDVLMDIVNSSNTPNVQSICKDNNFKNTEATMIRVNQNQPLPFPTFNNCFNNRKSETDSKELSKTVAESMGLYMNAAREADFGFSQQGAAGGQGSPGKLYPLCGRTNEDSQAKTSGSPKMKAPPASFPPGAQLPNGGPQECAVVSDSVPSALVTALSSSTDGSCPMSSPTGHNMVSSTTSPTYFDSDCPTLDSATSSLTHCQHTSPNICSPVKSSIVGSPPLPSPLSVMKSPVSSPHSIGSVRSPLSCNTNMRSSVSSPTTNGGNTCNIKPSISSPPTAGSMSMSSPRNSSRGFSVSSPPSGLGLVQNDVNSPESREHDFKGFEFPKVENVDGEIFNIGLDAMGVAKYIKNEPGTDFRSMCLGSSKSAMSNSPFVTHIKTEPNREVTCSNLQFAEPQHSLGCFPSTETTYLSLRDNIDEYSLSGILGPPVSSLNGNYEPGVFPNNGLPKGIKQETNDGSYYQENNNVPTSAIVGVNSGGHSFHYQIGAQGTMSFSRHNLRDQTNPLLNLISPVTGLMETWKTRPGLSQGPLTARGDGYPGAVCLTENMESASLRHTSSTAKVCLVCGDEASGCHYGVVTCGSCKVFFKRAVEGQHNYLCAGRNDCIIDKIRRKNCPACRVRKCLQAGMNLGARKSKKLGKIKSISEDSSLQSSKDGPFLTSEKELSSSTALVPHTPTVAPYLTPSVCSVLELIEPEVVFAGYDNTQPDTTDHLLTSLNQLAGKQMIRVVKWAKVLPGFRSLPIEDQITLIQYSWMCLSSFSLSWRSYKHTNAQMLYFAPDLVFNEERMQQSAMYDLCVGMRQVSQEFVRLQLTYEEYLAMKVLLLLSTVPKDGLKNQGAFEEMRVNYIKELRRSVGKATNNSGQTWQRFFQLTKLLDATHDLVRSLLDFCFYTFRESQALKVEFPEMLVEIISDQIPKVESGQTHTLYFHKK
Source text: as §2

full-length chicken MR = molecular target: T4, full-length chicken MR (Gallus gallus, UniProt C1KB84); parameters: transcriptional activation of full-length MR, MMTV-luciferase reporter, concentration-response
T4 construct: gene NR3C2; full-length, expressed in HEK293 cells
T4 sequence (C1KB84 1-986): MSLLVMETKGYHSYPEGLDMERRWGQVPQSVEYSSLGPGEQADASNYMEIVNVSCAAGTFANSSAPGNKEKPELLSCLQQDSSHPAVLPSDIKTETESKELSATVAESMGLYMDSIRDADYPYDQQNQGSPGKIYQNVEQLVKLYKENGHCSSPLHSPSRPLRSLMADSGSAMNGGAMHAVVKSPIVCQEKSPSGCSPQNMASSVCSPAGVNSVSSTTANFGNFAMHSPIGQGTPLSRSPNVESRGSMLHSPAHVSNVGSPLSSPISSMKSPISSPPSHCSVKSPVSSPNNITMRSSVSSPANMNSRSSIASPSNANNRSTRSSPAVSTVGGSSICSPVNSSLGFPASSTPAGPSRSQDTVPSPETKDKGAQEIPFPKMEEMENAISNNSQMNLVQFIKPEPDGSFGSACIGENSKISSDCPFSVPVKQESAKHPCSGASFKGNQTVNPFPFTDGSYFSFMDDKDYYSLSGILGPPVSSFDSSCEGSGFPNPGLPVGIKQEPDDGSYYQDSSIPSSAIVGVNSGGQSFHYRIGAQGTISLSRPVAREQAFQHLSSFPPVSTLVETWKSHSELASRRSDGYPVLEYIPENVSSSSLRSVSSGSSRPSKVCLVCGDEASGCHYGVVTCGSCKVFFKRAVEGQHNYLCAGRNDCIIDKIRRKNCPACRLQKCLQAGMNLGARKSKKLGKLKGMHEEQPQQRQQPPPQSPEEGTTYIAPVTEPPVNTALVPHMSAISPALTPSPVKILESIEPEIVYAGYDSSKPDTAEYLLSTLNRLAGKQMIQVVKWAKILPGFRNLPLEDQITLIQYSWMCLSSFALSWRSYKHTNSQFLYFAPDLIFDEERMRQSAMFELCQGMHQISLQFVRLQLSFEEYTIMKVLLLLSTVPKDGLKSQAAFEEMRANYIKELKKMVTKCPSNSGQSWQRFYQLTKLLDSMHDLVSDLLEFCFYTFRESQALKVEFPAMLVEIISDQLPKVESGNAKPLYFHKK
Source text: as §2

[3] = molecular target: T5, truncated zebrafish MR (GAL4-DBD-MR-LBD) (Danio rerio, UniProt A6YIH7); parameters: transcriptional activation of truncated GAL4-DBD-MR-LBD, luciferase reporter, concentration-response
T5 construct: gene nr3c2
T5 sequence (A6YIH7 669-970 limits assumed): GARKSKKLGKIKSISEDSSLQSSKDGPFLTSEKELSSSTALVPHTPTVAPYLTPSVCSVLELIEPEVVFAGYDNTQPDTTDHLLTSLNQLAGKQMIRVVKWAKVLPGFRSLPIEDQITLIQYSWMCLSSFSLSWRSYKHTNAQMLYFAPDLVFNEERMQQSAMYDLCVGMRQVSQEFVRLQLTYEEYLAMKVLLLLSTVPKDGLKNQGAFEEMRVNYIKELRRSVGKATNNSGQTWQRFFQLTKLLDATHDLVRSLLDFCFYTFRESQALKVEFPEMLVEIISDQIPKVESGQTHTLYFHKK
Source text: as §1

SMILES | Emax [1] [%] | Emax [2] [%] | Emax (full-length zebrafish MR) [%] | Emax (full-length chicken MR) [%] | Emax [3] [%]
C[C@]12CC[C@H]3[C@@H](CCC4=CC(=O)CC[C@@]43C)[C@@H]1CC[C@@H]2C(=O)CO [11-deoxycorticosterone] | 81 | 83 |  |  | 
CC(=O)[C@@]1(O)CC[C@H]2[C@@H]3CCC4=CC(=O)CC[C@]4(C)[C@H]3CC[C@@]21C [17OH-Prog] | 26 | 25 | 44 | 15 | 
CC(=O)[C@H]1CC[C@H]2[C@@H]3CCC4=CC(=O)CC[C@@H]4[C@H]3CC[C@]12C [19norProg] | 98 | 84 | 83 | 68 | 122
C[C@]12C[C@H](O)[C@H]3[C@@H](CCC4=CC(=O)CC[C@@]43C)[C@@H]1CC[C@@H]2C(=O)CO [B, corticosterone] | 90 | 101 |  |  | 
CC(=O)[C@H]1CC[C@H]2[C@@H]3CCC4=CC(=O)CC[C@]4(C)[C@H]3CC[C@]12C [Prog] | 40 | 43 | 77 | 62 | 122

More lines, main results first:

Emax [1] [%] | Emax [2] [%] | Emax (full-length zebrafish MR) [%] | Emax (full-length chicken MR) [%] | SMILES | Emax [3] [%]
77 | 83 |  |  | C[C@]12CCC(=O)C=C1CC[C@@H]1[C@@H]2CC[C@@]2(C)[C@H]1CC[C@]2(O)C(=O)CO [S, 11-deoxycortisol] | 
53 | 45 | 54 | 30 | CC(=O)S[C@@H]1CC2=CC(=O)CC[C@]2(C)[C@H]2CC[C@@]3(C)[C@@H](CC[C@@]34CCC(=O)O4)[C@H]12 [Spiron] | 
79 | 114 |  |  | C[C@]12CCC(=O)C=C1CC[C@@H]1[C@@H]2[C@@H](O)C[C@@]2(C)[C@H]1CC[C@]2(O)C(=O)CO [cortisol] | 
